Values joined by “and” are separate entries in the source; they are usually repeats but may differ in a detail not shown here. Identical values can stand only once.
biological target: T1, human LAT1 (Homo sapiens, UniProt Q01650); experiment: cis-inhibition assay: inhibition of [3H]-gabapentin uptake into HEK-hLAT1 cells; assay type: cell-based; details: read-out: % Inhibition of [3H]-gabapentin uptake
T1 sequence (Q01650 whole entry): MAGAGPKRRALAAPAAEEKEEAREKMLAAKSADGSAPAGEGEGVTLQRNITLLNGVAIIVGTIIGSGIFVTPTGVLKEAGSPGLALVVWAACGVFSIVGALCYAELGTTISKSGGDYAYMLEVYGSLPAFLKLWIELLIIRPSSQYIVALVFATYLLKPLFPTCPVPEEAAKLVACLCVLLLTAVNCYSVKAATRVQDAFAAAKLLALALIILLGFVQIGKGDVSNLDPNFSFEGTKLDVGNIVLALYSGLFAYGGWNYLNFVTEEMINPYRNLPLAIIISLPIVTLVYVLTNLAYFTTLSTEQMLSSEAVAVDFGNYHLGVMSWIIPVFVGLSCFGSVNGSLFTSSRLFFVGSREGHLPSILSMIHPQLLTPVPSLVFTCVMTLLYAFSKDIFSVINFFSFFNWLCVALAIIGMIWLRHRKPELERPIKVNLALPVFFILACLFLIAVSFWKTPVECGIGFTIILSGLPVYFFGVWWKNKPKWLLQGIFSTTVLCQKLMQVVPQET
T1 sequence (P08195 102-630 partner): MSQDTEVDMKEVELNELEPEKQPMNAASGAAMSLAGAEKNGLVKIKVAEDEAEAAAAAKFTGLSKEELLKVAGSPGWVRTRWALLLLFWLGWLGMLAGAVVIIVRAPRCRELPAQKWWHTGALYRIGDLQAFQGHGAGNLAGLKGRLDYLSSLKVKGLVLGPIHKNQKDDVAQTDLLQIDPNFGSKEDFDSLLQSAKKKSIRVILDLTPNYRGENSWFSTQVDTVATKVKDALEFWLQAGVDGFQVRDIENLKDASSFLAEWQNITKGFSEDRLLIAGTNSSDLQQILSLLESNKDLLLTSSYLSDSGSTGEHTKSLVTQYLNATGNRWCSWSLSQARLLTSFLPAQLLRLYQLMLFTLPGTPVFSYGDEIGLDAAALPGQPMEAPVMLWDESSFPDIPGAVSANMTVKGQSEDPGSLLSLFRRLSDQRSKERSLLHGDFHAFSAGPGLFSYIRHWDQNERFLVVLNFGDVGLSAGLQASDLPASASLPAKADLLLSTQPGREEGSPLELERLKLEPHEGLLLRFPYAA

SMILES	inhibition at 200 µM [%]
N=C(N)NCCC[C@H](N)C(=O)O [Compound 1i, reference compound]	49 ± 2
N[C@@H](Cc1ccc(O)cc1)C(=O)O [Compound 1b, tyrosine]	68 ± 0.5
N[C@@H](Cc1ccccc1)C(=O)O [Compound 1a, phenylalanine, reference compound]	85 ± 0.6
N[C@@H](Cc1c[nH]c2ccccc12)C(=O)O [Compound 1d, tryptophan, reference compound]	79 ± 0.6

biological target: T1, human LAT1; experiment: not given; assay type: cell-based; details: compound at 200 μM; pre-loaded HEK-hLAT1 cells; at least triplicate

Efflux Rate of [3H]-gabapentin	SMILES
1.5 fmol/min and 1.5 ± 0.2 fmol/min	CC[C@H](C)[C@H](N)C(=O)NO.Cl [Compound 12f]
1.5 fmol/min and 1.5 ± 0.1 fmol/min	CC(C)C[C@H](N)C(=O)NO.Cl [Compound 12e]
0.70 ± 0.1 fmol/min	NCC(=O)NO [Compound 12h]
1.1 ± 0.01 fmol/min	CSCC[C@H](N)C(=O)NO.Cl [Compound 12g]
1.0 ± 0.1 fmol/min	N[C@@H](Cc1c[nH]c2ccccc12)C(=O)NO [Compound 12d]
1.0 ± 0.1 fmol/min	N[C@@H](Cc1ccc(O)cc1)C(=O)NO [Compound 12b]
0.63 ± 0.03 fmol/min	CS(=O)(=O)NC(=O)[C@@H](N)Cc1ccc(O)cc1 [Compound 10b]
0.69 fmol/min and 0.69 ± 0.01 fmol/min	CC(C)C[C@H](N)C(N)=O.Cl [Compound 13e, leucinamide]
0.61 ± 0.06 fmol/min	CS(=O)(=O)NC(=O)[C@@H](N)Cc1ccccc1 [Compound 10a]

More lines, now with the values behind:

SMILES	Efflux Rate of [3H]-gabapentin
N=C(N)NCCC[C@H](N)C(=O)O [Compound 1i, reference compound]	0.75 ± 0.1 fmol/min
CONC(=O)[C@@H](N)CC(C)C.Cl [Compound 9e]	2.1 fmol/min and 2.1 ± 0.2 fmol/min
CC[C@H](C)[C@H](N)C(=O)O [Compound 1f, isoleucine, reference compound]	2.5 ± 0.1 fmol/min
CSCC[C@H](N)C(=O)O [Compound 1g, methionine, reference compound]	2.4 ± 0.1 fmol/min
N[C@@H](Cc1ccccc1)C(=O)O [Compound 1a, phenylalanine, reference compound]	3.6 fmol/min and 3.6 ± 0.7 fmol/min
N[C@@H](Cc1ccccc1)c1nnn[nH]1 [Compound 11]	0.61 ± 0.01 fmol/min
N[C@@H](Cc1c[nH]c2ccccc12)C(=O)O [Compound 1d, tryptophan, reference compound]	1.6 ± 0.3 fmol/min

Reference: article PMC5076878 (Bioorganic & medicinal chemistry letters, 2016)
